From patent US20060234990A1, “Compositions of boswellic acids derived from Boswellia serrata gum resin, for treating lymphoproliferative and autoimmune conditions” (SAMI LABS LTD., priority 2000, published 2006)

Assays:
HL-60 cells [1] = test: Protein synthesis ([3H]leucine incorporation) in HL-60 cells; format: cell-based; conditions: Homo sapiens; cultured HL-60 cells incubated for 2 hours; read-out: 50% inhibitory activity on the incorporation of [3H]-leucine into protein
From the text: (§1) FIGS. 1, 2, and 3 show the inhibitory effects of compounds I-IV on the DNA, RNA and protein synthesis of HL-60 cells, respectively (in FIG. 1-3, lines 1, 2, 3 and 4 refer to the data of compounds I, II, III and IV, respectively). Tables 1 and 2 show the inhibitory effect of a “total organic acids” extract of the exudate of Boswellia serrata on DNA, RNA and protein synthesis or growth in HL-60 cells. […] The initial rates of incorporation of [^3H]-thymidine, [^3H]-uridine and [^3H]-leucine into trichloroacetic acid (TCA)-insoluble material were utilized to estimate the rates of DNA, RNA, and protein synthesis, respectively, in HL-60 cells. […] the inhibitory effects of compounds I-IV and the alcoholic extract on DNA. RNA and protein synthesis of HL-60 cells were in a dose-dependent manner. […] 0.9 and 0.6 μM, respectively, the incorporation of [3H]-uridine at concentrations of 7.1, 2.3. 2.2 and 0.5 μM, respectively, and the incorporation of [3H]-leucine into protein at concentrations of 6.3, 5.4, 5.1 and 4.1 μM, respectively, in cultured HL-60 cells incubated for 2 hours.
(§2) Various concentrations of the Boswellia serrata extract, as indicated above, were added to 1 mL of HL-60 cells suspended in RPMI medium. [^3H]thymidine (50 μCi/μmol: […]), [^3H]uridine (55 μCi/μmol; 5 μL), [^3H]leucine (200 μCi/μmol: 10 μL), were added to the cell suspension and incubated at 37° C. for 120 min. Reactions were terminated by addition of 3 mL of cold PBS, and the rates of DNA. RNA, and protein synthesis were determined.

HL-60 cells [2] = test: RNA synthesis ([3H]uridine incorporation) in HL-60 cells; format: cell-based; conditions: Homo sapiens; cultured HL-60 cells incubated for 2 hours; read-out: 50% inhibitory activity on the incorporation of [3H]-uridine
From the text: as §1, §2

HL-60 cells [3] = test: DNA synthesis ([3H]thymidine incorporation) in HL-60 cells; format: cell-based; conditions: Homo sapiens; cultured HL-60 cells incubated for 2 hours; read-out: 50% inhibitory activity on the incorporation of [3H]-thymidine into DNA
From the text: as §1, §2
[^3H]Thymidine (3 μL; 50 μCi/μmol), vehicle or various concentrations of BSE in vehicle were added to 1 mL of HL-60 cells (5×10^5 cells/mL) in culture, and the cultures were incubated at 37° C. for 120 min. Data are expressed as the mean±SE calculated from triplicate studies. Data in parentheses are the percent inhibition of [^3H]thymidine incorporation into the DNA of HL-60 cells.

human leukocyte elastase = molecular target: T1, human leukocyte elastase (Homo sapiens, UniProt P08246); conditions: in vitro; Safayhi et al (1997); cited from earlier work
T1 sequence (P08246 30-267): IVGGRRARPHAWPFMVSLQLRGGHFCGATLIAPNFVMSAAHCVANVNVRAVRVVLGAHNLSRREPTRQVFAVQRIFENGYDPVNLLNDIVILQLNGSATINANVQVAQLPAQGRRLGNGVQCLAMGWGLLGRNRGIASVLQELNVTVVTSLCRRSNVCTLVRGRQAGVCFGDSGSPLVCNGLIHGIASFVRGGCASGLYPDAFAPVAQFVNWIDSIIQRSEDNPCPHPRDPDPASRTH

HL-60 cells [4] = test: Cellular growth of HL-60 cells in culture; format: cell-based; conditions: Homo sapiens, HL-60, 96 h, 37° C., 4 days
Protocol: (§3) The effect of compound IV on cellular growth of HL-60 cells was tested. […] In order to test whether this growth was the result of cell cytotoxicity, the effects of this compound on cell viability were examined after 4 days incubation using the trypan blue exclusion method. The cells viability at concentrations of 0, 1, 4, 16 μM were 97.0, 96.8, 96.5, or 96.7%, respectively.
Various concentrations of BSE, as indicated above, were added to the HL-60 cell cultures. These cultures were counted daily using a hemacytometer under a microscope with 10× magnification every 24 hours. Data are expressed as the mean=SE calculated from triplicate studies. Data in parentheses are the percent inhibition of cell growth.

HL-60 cells [5] = test: Reversibility of DNA synthesis inhibition after preincubation and washing; format: cell-based, human; conditions: preincubated at 2 and 8 μM for 30 min at 37° C., washed with PBS
Protocol: In this experiment HL-60 cells were preincubated with compound IV at 2 and 8 μM for 30 min at 37° C., washed with phosphate buffer saline and [3H]-thymidine was added to the culture. At desired times, the reactions were terminated and the rates of DNA synthesis were determined.

[6] = Cell viability of HL-60 cells, trypan blue exclusion method; format: cell-based; conditions: human, 4 days incubation
Protocol: as §3

IC50 (HL-60 cells [1]) [µM]	IC50 (HL-60 cells [2]) [nM]	IC50 (HL-60 cells [3]) [nM]	SMILES	IC50 (human leukocyte elastase) [µM]	inhibition at 1 µM (HL-60 cells [4]; 1 μM) [%]	inhibition at 4 µM (HL-60 cells [4]; 4 μM) [%]	inhibition at 16 µM (HL-60 cells [4]; 16 μM) [%]	inhibitory action on DNA synthesis after washing (HL-60 cells [5])	viability at 4 days, 1 µM ([6]; 1 μM) [%]	viability at 4 days, 4 µM ([6]; 4 μM) [%]	viability at 4 days, 16 µM ([6]; 16 μM) [%]
6.3	7100	3700	CC1CCC2(C)CCC3(C)C(=CCC4(C)C3CCC3C(C)(C(=O)O)C(O)CCC34C)C2C1C (stereo not drawn) [I, β-Boswellic Acid]	–	–	–	–	–	–	–	–
5.4	2300	1400	CC(=O)OC1CCC2(C)C(CCC3C4(C)CCC5(C)CCC(C)C(C)C5C4=CCC32C)C1(C)C(=O)O (stereo not drawn) [II, Acetyl-β-Boswellic Acid]	–	–	–	–	–	–	–	–
5.1	2200	900	CC1CCC2(C)CCC3(C)C(=CC(=O)C4(C)C3CCC3C(C)(C(=O)O)C(O)CCC34C)C2C1C (stereo not drawn) [III, 11-keto-β-Boswellic Acid]	–	–	–	–	–	–	–	–
4.1	500	600	CC(=O)OC1CCC2(C)C(CCC3C4(C)CCC5(C)CCC(C)C(C)C5C4=CC(=O)C32C)C1(C)C(=O)O (stereo not drawn) [IV, Acetyl-11-keto-β-Boswellic Acid]	~15	54.5	71.8	98.6	irreversible	96.8	96.5	96.7
